The results in this text go back to patent US20220046923A1, “HERBICIDAL CINNOLINIUM COMPOUNDS” (SYNGENTA CROP PROTECTION AG, priority 2018, published 2022).

Assay in all cases: Post-emergence efficacy, glasshouse spray test
Common to all, as to assay type: in vivo

Experiment [1] deals with Ipomoea hederacea (IPOHE). Conditions: Ipomoea hederacea, post-emergence, 312 h, evaluated after 13 days, read-out: Control of weed species IPOHE after post-emergence application (100=total damage to plant; 0=no damage to plant); for pest or weed control at 500 g/ha: application rate 500 g/Ha; for pest or weed control at 1000 g/ha: application rate 1000 g/Ha. The procedure, abridged: (§1)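 Visual damage score 13 days after spraying, 0 (no damage) to 100 (plant killed). Pot-grown plants were treated at 14 days post-sowing with aqueous spray of compound formulated in acetone/IF50, diluted with 0.25% or 1% Empicol ESC70 plus 1% ammonium sulphate; glasshouse kept at 24/16 °C, 14 h light, 65% RH.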

The test system of experiment [2] is Digitaria sanguinalis (DIGSA). The settings on record: Digitaria sanguinalis, post-emergence, 312 h, evaluated after 13 days, read-out: Control of weed species DIGSA after post-emergence application (100=total damage to plant; 0=no damage to plant); for pest or weed control at 500 g/ha: application rate 500 g/Ha; for pest or weed control at 1000 g/ha: application rate 1000 g/Ha. The procedure, abridged:
as §1

Experiment [3] relates to Echinochloa crus-galli (ECHCG). The settings on record: Echinochloa crus-galli, post-emergence, 312 h, evaluated after 13 days, read-out: Control of weed species ECHCG after post-emergence application (100=total damage to plant; 0=no damage to plant); for pest or weed control at 500 g/ha: application rate 500 g/Ha; for pest or weed control at 1000 g/ha: application rate 1000 g/Ha. The procedure, abridged:
as §1

Experiment [4] has as its system Euphorbia heterophylla (EPHHL). The settings on record: Euphorbia heterophylla, post-emergence, 312 h, evaluated after 13 days, read-out: Control of weed species EPHHL after post-emergence application (100=total damage to plant; 0=no damage to plant); for pest or weed control at 500 g/ha: application rate 500 g/Ha; for pest or weed control at 1000 g/ha: application rate 1000 g/Ha. The procedure, abridged:
as §1

The subject of another experiment is Lolium perenne (LOLPE). Conditions: Lolium perenne, post-emergence, 312 h, evaluated after 13 days, read-out: Control of weed species LOLPE after post-emergence application (100=total damage to plant; 0=no damage to plant); for pest or weed control at 500 g/ha: application rate 500 g/Ha; for pest or weed control at 1000 g/ha: application rate 1000 g/Ha. The procedure, abridged:
as §1

Experiment [5] has as its system Amaranthus palmeri (AMAPA). Conditions: Amaranthus palmeri, post-emergence, 312 h, evaluated after 13 days, read-out: Control of weed species AMAPA after post-emergence application (100=total damage to plant; 0=no damage to plant); for pest or weed control at 500 g/ha: application rate 500 g/Ha; for pest or weed control at 1000 g/ha: application rate 1000 g/Ha. The procedure, abridged:
as §1

For experiment [6], the system named is Chenopodium album (CHEAL). The settings on record: Chenopodium album, post-emergence, 312 h, evaluated after 13 days, read-out: Control of weed species CHEAL after post-emergence application (100=total damage to plant; 0=no damage to plant); for pest or weed control at 500 g/ha: application rate 500 g/Ha; for pest or weed control at 1000 g/ha: application rate 1000 g/Ha. The procedure, abridged:
as §1

In a further experiment the test system is Setaria faberi (SETFA). Conditions: Setaria faberi, post-emergence, 312 h, evaluated after 13 days, read-out: Control of weed species SETFA after post-emergence application (100=total damage to plant; 0=no damage to plant); for pest or weed control at 500 g/ha: application rate 500 g/Ha; for pest or weed control at 1000 g/ha: application rate 1000 g/Ha. A digest of the protocol:
as §1

Another experiment deals with Eleusine indica (ELEIN). Conditions: Eleusine indica, post-emergence, 312 h, evaluated after 13 days, read-out: Control of weed species ELEIN after post-emergence application (100=total damage to plant; 0=no damage to plant); for pest or weed control at 500 g/ha: application rate 500 g/Ha; for pest or weed control at 1000 g/ha: application rate 1000 g/Ha. The procedure, abridged:
as §1

For `CC(C(=O)OC(C)(C)C)[n+]1ccc2ccccc2n1` (stereo not drawn) [Compound A116], the pest or weed control at 500 g/ha was found to be 10% in experiment [1]; 40% in [2]; 30% in experiment [3]; 30% in [4]; 20% with Lolium perenne (LOLPE); 60% in [5]. For the same compound, the pest or weed control at 500 g/ha in experiment [6] stood at 50%; in the experiment on Setaria faberi (SETFA) it was 30%; with Eleusine indica (ELEIN), 30%.
With `Cc1cc(C)c2n[n+](CCO)cc(C)c2c1` [Compound A117], the pest or weed control at 1000 g/ha in experiment [1] is 20%; in experiment [2] it was 20%; in experiment [3], 20%; in [4] it was 20%; in the experiment with Lolium perenne (LOLPE), 10%; in experiment [5], 30%. The pest or weed control at 1000 g/ha in [6] was determined as 20%; in the experiment with Setaria faberi (SETFA), 30%; with Eleusine indica (ELEIN) it was 60%.
Turning to `Cc1c[n+](CCO)nc2ccccc12` [Compound A118], the pest or weed control at 1000 g/ha in [1] stood at 10%; in [2], 20%; in experiment [3], 10%; in experiment [4] it was 20%; in the experiment on Lolium perenne (LOLPE) it was 10%; in [5] it was 10%. The pest or weed control at 1000 g/ha is 10% in experiment [6], 10% with Setaria faberi (SETFA) and 20% in the experiment with Eleusine indica (ELEIN).
Turning to `OCC[n+]1ccc2ccccc2n1` [Compound A119], the pest or weed control at 1000 g/ha turned out to be 50% in experiment [1]; 50% in experiment [2]; 20% in experiment [3]; 80% in experiment [4]; 20% in the experiment with Lolium perenne (LOLPE); 90% in experiment [5]. Moreover, the pest or weed control at 1000 g/ha was 90% in [6], 50% in the experiment with Setaria faberi (SETFA) and 40% in the experiment with Eleusine indica (ELEIN).
For the compound `COC(=O)C(C)[n+]1ccc2ccccc2n1` (stereo not drawn) [Compound A120], the pest or weed control at 500 g/ha in experiment [1] was 20%; in experiment [2], 50%; in experiment [3] it was 30%; in experiment [4], 60%; in the experiment with Lolium perenne (LOLPE), 0%; in experiment [5], 100%. Moreover, the pest or weed control at 500 g/ha in experiment [6] came out at 90%; with Setaria faberi (SETFA) it was 50%; in the experiment on Eleusine indica (ELEIN), 60%.
Take `OCCC[n+]1ccc2ccccc2n1` [Compound A121]: the pest or weed control at 1000 g/ha was found to be 20% in [1]; 0% in experiment [2]; 10% in [3]; 30% in experiment [4]; 10% in the experiment with Lolium perenne (LOLPE); 30% in experiment [5]. Besides, the results for the pest or weed control at 1000 g/ha (in experiment [6]; in the experiment with Setaria faberi (SETFA); with Eleusine indica (ELEIN)) were 60%, 30% and 0%, respectively.
